Laboratory results reported in PubChem BioAssay (NCI).
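Where inhibition never reached the appropriate level, the endpoint shown equals the highest concentration tested. Otherwise, values were interpolated linearly from a five-concentration, 48-hour dose response in 96-well plates. GI50 is the concentration that inhibits growth by half. The concentration for full growth arrest is given as TGI.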

Columns and labels:
Assay in all cases: NCI anticancer screen, dose series, 48 h
A549 NSCLC = test system: A549 NSCLC
SN12C renal = test system: SN12C renal
RXF 393 renal = test system: RXF 393 renal
CCRF-CEM leukemia = test system: CCRF-CEM leukemia
OVCAR-5 ovarian = test system: OVCAR-5 ovarian
MOLT-4 leukemia = test system: MOLT-4 leukemia
A498 renal = test system: A498 renal
HOP-62 NSCLC = test system: HOP-62 NSCLC
KM20L2 colon = test system: KM20L2 colon
SK-MEL-5 melanoma = test system: SK-MEL-5 melanoma
DMS 114 small cell lung = test system: DMS 114 small cell lung
U251 CNS = test system: U251 CNS
LXFL 529 NSCLC = test system: LXFL 529 NSCLC
COLO 205 colon = test system: COLO 205 colon
NCI-H522 lung = test system: NCI-H522 lung
SNB-78 CNS = test system: SNB-78 CNS
LOX IMVI melanoma = test system: LOX IMVI melanoma
UACC-257 melanoma = test system: UACC-257 melanoma
HL-60(TB) leukemia = test system: HL-60(TB) leukemia
M19-MEL melanoma = test system: M19-MEL melanoma
SF-295 CNS = test system: SF-295 CNS
SK-OV-3 ovarian = test system: SK-OV-3 ovarian
ACHN renal = test system: ACHN renal
HCT-15 colon = test system: HCT-15 colon
TK-10 renal = test system: TK-10 renal
SF-539 CNS = test system: SF-539 CNS
HCT-116 colon = test system: HCT-116 colon
NCI-H226 lung = test system: NCI-H226 lung
M14 melanoma = test system: M14 melanoma
DMS 273 small cell lung = test system: DMS 273 small cell lung
OVCAR-4 ovarian = test system: OVCAR-4 ovarian
HOP-92 NSCLC = test system: HOP-92 NSCLC
SF-268 CNS = test system: SF-268 CNS
MALME-3M melanoma = test system: MALME-3M melanoma
SK-MEL-2 melanoma = test system: SK-MEL-2 melanoma
XF 498 CNS = test system: XF 498 CNS
HT29 colon = test system: HT29 colon
HCC-2998 colon = test system: HCC-2998 colon
IGROV1 ovarian = test system: IGROV1 ovarian
UACC-62 melanoma = test system: UACC-62 melanoma
OVCAR-8 ovarian = test system: OVCAR-8 ovarian
SNB-75 CNS = test system: SNB-75 CNS
EKVX NSCLC = test system: EKVX NSCLC
SNB-19 CNS = test system: SNB-19 CNS
KM12 colon = test system: KM12 colon
NCI-H23 lung = test system: NCI-H23 lung
DLD-1 colon = test system: DLD-1 colon
SR leukemia = test system: SR leukemia
SK-MEL-28 melanoma = test system: SK-MEL-28 melanoma
OVCAR-3 ovarian = test system: OVCAR-3 ovarian
NCI-H460 lung = test system: NCI-H460 lung
RPMI-8226 leukemia = test system: RPMI-8226 leukemia
SW-620 colon = test system: SW-620 colon
CAKI-1 renal = test system: CAKI-1 renal
UO-31 renal = test system: UO-31 renal
786-0 renal = test system: 786-0 renal
K-562 leukemia = test system: K-562 leukemia

Compound NCCSCC(N)C(=O)O (centres undefined) has a GI50 (A549 NSCLC) greater than 497 µM, a TGI (A549 NSCLC) greater than 497 µM and a TGI (SN12C renal) greater than 497 µM. It also gave a TGI (RXF 393 renal) greater than 497 µM, a GI50 (CCRF-CEM leukemia) greater than 497 µM and a TGI (CCRF-CEM leukemia) greater than 497 µM. The TGI (OVCAR-5 ovarian) was greater than 497 µM, the TGI (MOLT-4 leukemia) was greater than 497 µM and the TGI (A498 renal) was greater than 497 µM. It also gave a TGI (HOP-62 NSCLC) greater than 497 µM, a TGI (KM20L2 colon) greater than 497 µM and a GI50 (SK-MEL-5 melanoma) greater than 497 µM. The TGI (SK-MEL-5 melanoma) was greater than 497 µM, the TGI (DMS 114 small cell lung) was greater than 497 µM and the TGI (U251 CNS) was greater than 497 µM. For the same compound, the TGI (LXFL 529 NSCLC) was greater than 497 µM, the GI50 (COLO 205 colon) was greater than 497 µM and the TGI (COLO 205 colon) was greater than 497 µM. The GI50 (NCI-H522 lung) was greater than 497 µM, the TGI (NCI-H522 lung) was greater than 497 µM and the TGI (SNB-78 CNS) was greater than 497 µM. The TGI (LOX IMVI melanoma) was greater than 497 µM, the TGI (UACC-257 melanoma) was greater than 497 µM and the TGI (HL-60(TB) leukemia) was greater than 497 µM. The TGI (M19-MEL melanoma) was greater than 497 µM, the TGI (SF-295 CNS) was greater than 497 µM and the TGI (SK-OV-3 ovarian) was greater than 497 µM. For the same compound, the GI50 (ACHN renal) was greater than 497 µM, the TGI (ACHN renal) was greater than 497 µM and the GI50 (HCT-15 colon) was greater than 497 µM. The TGI (HCT-15 colon) was greater than 497 µM, the TGI (TK-10 renal) was greater than 497 µM and the TGI (SF-539 CNS) was greater than 497 µM. The GI50 (HCT-116 colon) was greater than 497 µM, the TGI (HCT-116 colon) was greater than 497 µM and the TGI (NCI-H226 lung) was greater than 497 µM. It also gave a TGI (M14 melanoma) greater than 497 µM, a TGI (DMS 273 small cell lung) greater than 497 µM and a TGI (OVCAR-4 ovarian) greater than 497 µM. It also gave a TGI (HOP-92 NSCLC) greater than 497 µM, a TGI (SF-268 CNS) greater than 497 µM and a GI50 (MALME-3M melanoma) greater than 497 µM. The TGI (MALME-3M melanoma) was greater than 497 µM, the TGI (SK-MEL-2 melanoma) was greater than 497 µM and the TGI (XF 498 CNS) was greater than 497 µM. It also gave a GI50 (HT29 colon) greater than 497 µM, a TGI (HT29 colon) greater than 497 µM and a TGI (HCC-2998 colon) greater than 497 µM. For the same compound, the GI50 (IGROV1 ovarian) was greater than 497 µM, the TGI (IGROV1 ovarian) was greater than 497 µM and the TGI (UACC-62 melanoma) was greater than 497 µM. It also gave a TGI (OVCAR-8 ovarian) greater than 497 µM, a GI50 (SNB-75 CNS) of 470 µM and a TGI (SNB-75 CNS) greater than 497 µM. It also gave a TGI (EKVX NSCLC) greater than 497 µM, a TGI (SNB-19 CNS) greater than 497 µM and a GI50 (KM12 colon) greater than 497 µM. It also gave a TGI (KM12 colon) greater than 497 µM, a TGI (NCI-H23 lung) greater than 497 µM and a TGI (DLD-1 colon) greater than 497 µM. The TGI (SR leukemia) was greater than 497 µM, the TGI (SK-MEL-28 melanoma) was greater than 497 µM and the GI50 (OVCAR-3 ovarian) was greater than 497 µM. For the same compound, the TGI (OVCAR-3 ovarian) was greater than 497 µM, the GI50 (NCI-H460 lung) was greater than 497 µM and the TGI (NCI-H460 lung) was greater than 497 µM. The GI50 (RPMI-8226 leukemia) was greater than 497 µM, the TGI (RPMI-8226 leukemia) was greater than 497 µM and the GI50 (SW-620 colon) was greater than 497 µM. The TGI (SW-620 colon) was greater than 497 µM.
In the case of C=CCN1C(=O)C(=O)N(CC=C)C(=O)C1=O, the TGI (CAKI-1 renal) is reported as greater than 100 µM, the TGI (A549 NSCLC) is reported as greater than 100 µM and the TGI (SN12C renal) is reported as greater than 100 µM. The TGI (RXF 393 renal) was greater than 100 µM, the TGI (CCRF-CEM leukemia) was greater than 100 µM and the TGI (OVCAR-5 ovarian) was greater than 100 µM. The TGI (UO-31 renal) was greater than 100 µM, the TGI (MOLT-4 leukemia) was greater than 100 µM and the TGI (A498 renal) was greater than 100 µM. The TGI (HOP-62 NSCLC) was greater than 100 µM, the TGI (KM20L2 colon) was greater than 100 µM and the TGI (SK-MEL-5 melanoma) was greater than 100 µM. It also gave a TGI (DMS 114 small cell lung) greater than 100 µM, a TGI (U251 CNS) greater than 100 µM and a TGI (LXFL 529 NSCLC) greater than 100 µM. For the same compound, the TGI (COLO 205 colon) was greater than 100 µM, the TGI (NCI-H522 lung) was greater than 100 µM and the TGI (SNB-78 CNS) was greater than 100 µM. For the same compound, the TGI (LOX IMVI melanoma) was greater than 100 µM, the TGI (UACC-257 melanoma) was greater than 100 µM and the TGI (HL-60(TB) leukemia) was greater than 100 µM. For the same compound, the TGI (M19-MEL melanoma) was greater than 100 µM, the TGI (SF-295 CNS) was greater than 100 µM and the TGI (SK-OV-3 ovarian) was greater than 100 µM. For the same compound, the TGI (HCT-15 colon) was greater than 100 µM, the TGI (TK-10 renal) was greater than 100 µM and the TGI (SF-539 CNS) was greater than 100 µM. For the same compound, the TGI (HCT-116 colon) was greater than 100 µM, the TGI (NCI-H226 lung) was greater than 100 µM and the TGI (M14 melanoma) was greater than 100 µM. For the same compound, the TGI (DMS 273 small cell lung) was greater than 100 µM, the TGI (OVCAR-4 ovarian) was greater than 100 µM and the TGI (HOP-92 NSCLC) was greater than 100 µM. For the same compound, the TGI (SF-268 CNS) was greater than 100 µM, the TGI (MALME-3M melanoma) was greater than 100 µM and the TGI (786-0 renal) was greater than 100 µM. The TGI (XF 498 CNS) was greater than 100 µM, the TGI (HT29 colon) was greater than 100 µM and the TGI (HCC-2998 colon) was greater than 100 µM. The TGI (IGROV1 ovarian) was greater than 100 µM, the TGI (UACC-62 melanoma) was greater than 100 µM and the TGI (OVCAR-8 ovarian) was greater than 100 µM. The TGI (K-562 leukemia) was greater than 100 µM, the TGI (SNB-75 CNS) was greater than 100 µM and the TGI (EKVX NSCLC) was greater than 100 µM. For the same compound, the TGI (SNB-19 CNS) was greater than 100 µM, the TGI (KM12 colon) was greater than 100 µM and the TGI (NCI-H23 lung) was greater than 100 µM. It also gave a TGI (DLD-1 colon) greater than 100 µM, a TGI (SR leukemia) greater than 100 µM and a TGI (OVCAR-3 ovarian) greater than 100 µM. For the same compound, the TGI (NCI-H460 lung) was greater than 100 µM, the TGI (RPMI-8226 leukemia) was greater than 100 µM and the TGI (SW-620 colon) was greater than 100 µM.
